We go through 23 compounds from patent US20250243196A1, “CITRON KINASE INHIBITORS” (The Cleveland Clinic Foundation, priority 2021, published 2025).

SMILES strings stand for the structures. Like-named read-outs stand apart in the source and are kept apart here. Bounds are passed on as bounds.

One assay has as its target Citron kinase (Homo sapiens (Human), UniProt O14578). The assay can be described thus: Radiometric citron kinase assay (Eurofins Cat #16-040KP). It counts as biochemical. In a few lines:
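Radiometric KinaseProfiler format: test compound incubated with kinase, substrate, cofactors and radiolabelled ATP; unreacted ATP washed away and radiolabelled phosphate incorporated into substrate measured. IC50 derived from inhibition of phosphorylation. Values are means of at least two independent assays.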

The target of assay [1] is NanoLuc-CITK (full-length human CITK) (Homo sapiens (Human), UniProt O14578). The assay can be described thus: NanoBRET intracellular target engagement assay. It counts as cell-based. Here is the method: In-cell Kd values were evaluated with a NanoBRET Target Engagement Assay essentially as recommended by the manufacturer (Promega Corporation—for details see https://www.promega.com/resources/technologies/nanoluc-luciferase-enzyme/cellular-target-engagement/).
NanoLuc-CITK (full-length human CITK), sequence (O14578 other isoform, or with tags, fused parts or gaps): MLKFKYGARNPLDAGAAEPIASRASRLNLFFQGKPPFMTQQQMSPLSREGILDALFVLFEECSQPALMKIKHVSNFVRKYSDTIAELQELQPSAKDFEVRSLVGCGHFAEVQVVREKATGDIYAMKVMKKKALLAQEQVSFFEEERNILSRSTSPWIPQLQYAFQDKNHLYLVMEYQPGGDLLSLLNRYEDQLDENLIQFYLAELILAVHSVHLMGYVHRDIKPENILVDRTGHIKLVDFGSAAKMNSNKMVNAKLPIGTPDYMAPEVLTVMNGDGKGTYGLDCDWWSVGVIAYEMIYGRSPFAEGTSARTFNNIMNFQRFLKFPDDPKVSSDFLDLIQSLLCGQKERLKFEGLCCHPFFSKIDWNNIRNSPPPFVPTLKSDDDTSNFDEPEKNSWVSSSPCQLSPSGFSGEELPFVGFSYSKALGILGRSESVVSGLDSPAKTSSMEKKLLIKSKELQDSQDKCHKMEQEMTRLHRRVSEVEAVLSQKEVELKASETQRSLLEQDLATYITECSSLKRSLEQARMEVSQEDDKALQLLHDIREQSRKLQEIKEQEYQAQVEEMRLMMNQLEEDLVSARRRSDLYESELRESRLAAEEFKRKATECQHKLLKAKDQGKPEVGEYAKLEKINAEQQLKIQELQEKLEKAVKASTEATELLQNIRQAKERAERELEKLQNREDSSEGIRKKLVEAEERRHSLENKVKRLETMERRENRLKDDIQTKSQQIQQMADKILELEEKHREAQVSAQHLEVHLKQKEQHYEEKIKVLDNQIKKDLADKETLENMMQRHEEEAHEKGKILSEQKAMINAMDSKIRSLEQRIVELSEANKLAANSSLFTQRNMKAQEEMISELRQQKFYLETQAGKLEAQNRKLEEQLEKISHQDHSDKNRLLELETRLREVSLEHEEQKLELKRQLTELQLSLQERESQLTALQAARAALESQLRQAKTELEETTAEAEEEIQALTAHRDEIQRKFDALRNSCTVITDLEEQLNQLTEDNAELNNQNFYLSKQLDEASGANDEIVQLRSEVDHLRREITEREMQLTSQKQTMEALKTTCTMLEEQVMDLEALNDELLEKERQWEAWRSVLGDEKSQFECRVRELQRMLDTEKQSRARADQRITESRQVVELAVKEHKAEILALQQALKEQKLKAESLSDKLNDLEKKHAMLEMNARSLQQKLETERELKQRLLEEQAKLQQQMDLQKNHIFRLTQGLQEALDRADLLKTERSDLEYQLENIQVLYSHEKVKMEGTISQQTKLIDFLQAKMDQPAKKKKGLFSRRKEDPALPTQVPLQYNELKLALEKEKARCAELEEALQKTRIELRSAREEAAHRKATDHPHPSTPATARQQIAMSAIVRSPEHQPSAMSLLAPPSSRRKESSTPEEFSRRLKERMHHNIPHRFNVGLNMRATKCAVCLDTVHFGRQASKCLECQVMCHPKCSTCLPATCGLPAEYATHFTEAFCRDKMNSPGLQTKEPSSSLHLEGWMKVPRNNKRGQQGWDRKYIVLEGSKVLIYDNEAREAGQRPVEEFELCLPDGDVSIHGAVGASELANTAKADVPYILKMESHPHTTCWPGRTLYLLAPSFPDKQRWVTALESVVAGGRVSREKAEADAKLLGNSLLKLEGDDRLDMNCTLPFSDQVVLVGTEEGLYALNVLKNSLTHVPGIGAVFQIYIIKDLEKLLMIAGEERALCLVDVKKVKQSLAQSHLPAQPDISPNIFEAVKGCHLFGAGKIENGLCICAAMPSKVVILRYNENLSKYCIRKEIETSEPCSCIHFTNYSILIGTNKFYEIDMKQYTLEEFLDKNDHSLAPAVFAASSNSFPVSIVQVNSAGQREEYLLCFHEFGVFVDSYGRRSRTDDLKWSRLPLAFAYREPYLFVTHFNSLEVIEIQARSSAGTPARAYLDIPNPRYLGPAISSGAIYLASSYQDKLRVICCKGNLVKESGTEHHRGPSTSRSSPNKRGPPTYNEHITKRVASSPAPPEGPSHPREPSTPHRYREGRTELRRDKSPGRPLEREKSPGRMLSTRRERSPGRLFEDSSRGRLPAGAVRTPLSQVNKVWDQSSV
HEK293T cells were transfected with 5.0 μg/mL sterile NanoLuc-CITK DNA, 5.0 μg/mL Transfection Carrier DNA, and 30 μL/mL FugeneHD® (Promega) in Opti-Mem™ (Thermo) media at a cell density of 250,000 cells/mL. […] 5 μL of the 25× Tracer K10 solution was added to each well. Next, designated inhibitors were prepared from powder as 10 mM DMSO stocks and then further diluted to 10× the final assay concentration in Opti-Mem™. 12-pt dose-response curves were prepared by 3×-serial dilution. […] A 3× Complete Substrate+Inhibitor solution, containing 6 mL of Opti-Mem™, 36 μL of NanoBRET Nano-Glo Substrate, and 12 μL Extracellular NanoLuc Inhibitor was freshly prepared for each plate. 50 μL of the 3× Complete Substrate+Inhibitor solution was added to all wells and the plate was incubated for 2 min with 500 RPM shaking. The bottom of the plates were covered with black plate seals and then measured on a Cytation 5 plate reader (Biotek) with a NanoBRET Filter Cube (Biotek; 450/50 emission & 610LP emission). Background corrected BRET ratios (in mBU) were calculated in Excel and IC50's were subsequently extracted using four-parameter non-linear regression in GraphPad Prism 8.
For orientation: In BRET a luciferase serves as donor, and the signal depends on an acceptor being close.

Another assay addresses IKKβ (Homo sapiens (Human), UniProt O14920). The assay can be described thus: KinaseProfiler radiometric assay (14-485KP). Type of assay: biochemical. As to conditions: mean of at least two independent experiments. An excerpt:
(§1) In another aspect, disclosed is a method of inhibiting citron kinase in a sample, comprising contacting the sample with a compound described herein (e.g., a compound of formula (I) or a pharmaceutically acceptable salt thereof), or a pharmaceutical composition described herein (e.g., a pharmaceutical composition comprising a compound of formula (I) or a pharmaceutically acceptable salt thereof), in an amount effective to inhibit citron kinase. In some embodiments, the step of contacting the sample with the compound comprises administering the compound to a subject (e.g., a subject) suffering from cancer. Methods of determining kinase inhibition are well known in the art. For example, kinase activity of an enzyme and the inhibitory capacity of a test compound can be determined by measuring enzyme specific phosphorylation of a substrate. Commercial assays and kits can be employed. For example, kinase inhibition can be determined using a radiometric binding assay, such as using KinaseProfiler™ technology (Eurofins Discovery). This assay method directly detects product formation without the use of modified substrates or coupling enzymes. Test compounds are incubated with kinase, substrate, required cofactors and radioisotope labeled ATP. Following incubation, unreacted radioactive ATP is removed by washing and incorporation of the radiolabeled phosphate into the kinase substrate is assayed to detect phosphoryltransferase activity, which is directly proportional to the amount of phosphorylated substrate. Inhibition of the kinase by a kinase inhibitor prevents phosphorylation of the substrate and thereby limits the incorporation of radiolabeled phosphate. Such an assay is compatible with a microwell assay format, allowing simultaneous determination of IC50 of multiple compounds.
(§2) The effect of various compounds on the inhibition of other kinases has also been determined. Table 2 reports measured IC50 values; value units are nanomolar inhibition.

A further assay deals with ROCK-2 (Homo sapiens (Human), UniProt O75116). The assay can be described thus: KinaseProfiler radiometric assay (14-451KP). Type of assay: biochemical. As to conditions: mean of at least two independent experiments.
Excerpt: as §1, §2

A further assay has as its target PKAα (Homo sapiens (Human), UniProt P17612). The assay can be described thus: KinaseProfiler radiometric assay (14-440KP). It counts as biochemical. As to conditions: mean of at least two independent experiments.
Excerpt: as §1, §2

Where [2] appears, read: HEK293T cells transfected with NanoLuc-CITK, Tracer K10 1 μM, 2 hours.
[3] abbreviates: mean of at least two independent assays, read-out: Radiometric CitK IC50.

Citron kinase, sequence (O14578 whole entry): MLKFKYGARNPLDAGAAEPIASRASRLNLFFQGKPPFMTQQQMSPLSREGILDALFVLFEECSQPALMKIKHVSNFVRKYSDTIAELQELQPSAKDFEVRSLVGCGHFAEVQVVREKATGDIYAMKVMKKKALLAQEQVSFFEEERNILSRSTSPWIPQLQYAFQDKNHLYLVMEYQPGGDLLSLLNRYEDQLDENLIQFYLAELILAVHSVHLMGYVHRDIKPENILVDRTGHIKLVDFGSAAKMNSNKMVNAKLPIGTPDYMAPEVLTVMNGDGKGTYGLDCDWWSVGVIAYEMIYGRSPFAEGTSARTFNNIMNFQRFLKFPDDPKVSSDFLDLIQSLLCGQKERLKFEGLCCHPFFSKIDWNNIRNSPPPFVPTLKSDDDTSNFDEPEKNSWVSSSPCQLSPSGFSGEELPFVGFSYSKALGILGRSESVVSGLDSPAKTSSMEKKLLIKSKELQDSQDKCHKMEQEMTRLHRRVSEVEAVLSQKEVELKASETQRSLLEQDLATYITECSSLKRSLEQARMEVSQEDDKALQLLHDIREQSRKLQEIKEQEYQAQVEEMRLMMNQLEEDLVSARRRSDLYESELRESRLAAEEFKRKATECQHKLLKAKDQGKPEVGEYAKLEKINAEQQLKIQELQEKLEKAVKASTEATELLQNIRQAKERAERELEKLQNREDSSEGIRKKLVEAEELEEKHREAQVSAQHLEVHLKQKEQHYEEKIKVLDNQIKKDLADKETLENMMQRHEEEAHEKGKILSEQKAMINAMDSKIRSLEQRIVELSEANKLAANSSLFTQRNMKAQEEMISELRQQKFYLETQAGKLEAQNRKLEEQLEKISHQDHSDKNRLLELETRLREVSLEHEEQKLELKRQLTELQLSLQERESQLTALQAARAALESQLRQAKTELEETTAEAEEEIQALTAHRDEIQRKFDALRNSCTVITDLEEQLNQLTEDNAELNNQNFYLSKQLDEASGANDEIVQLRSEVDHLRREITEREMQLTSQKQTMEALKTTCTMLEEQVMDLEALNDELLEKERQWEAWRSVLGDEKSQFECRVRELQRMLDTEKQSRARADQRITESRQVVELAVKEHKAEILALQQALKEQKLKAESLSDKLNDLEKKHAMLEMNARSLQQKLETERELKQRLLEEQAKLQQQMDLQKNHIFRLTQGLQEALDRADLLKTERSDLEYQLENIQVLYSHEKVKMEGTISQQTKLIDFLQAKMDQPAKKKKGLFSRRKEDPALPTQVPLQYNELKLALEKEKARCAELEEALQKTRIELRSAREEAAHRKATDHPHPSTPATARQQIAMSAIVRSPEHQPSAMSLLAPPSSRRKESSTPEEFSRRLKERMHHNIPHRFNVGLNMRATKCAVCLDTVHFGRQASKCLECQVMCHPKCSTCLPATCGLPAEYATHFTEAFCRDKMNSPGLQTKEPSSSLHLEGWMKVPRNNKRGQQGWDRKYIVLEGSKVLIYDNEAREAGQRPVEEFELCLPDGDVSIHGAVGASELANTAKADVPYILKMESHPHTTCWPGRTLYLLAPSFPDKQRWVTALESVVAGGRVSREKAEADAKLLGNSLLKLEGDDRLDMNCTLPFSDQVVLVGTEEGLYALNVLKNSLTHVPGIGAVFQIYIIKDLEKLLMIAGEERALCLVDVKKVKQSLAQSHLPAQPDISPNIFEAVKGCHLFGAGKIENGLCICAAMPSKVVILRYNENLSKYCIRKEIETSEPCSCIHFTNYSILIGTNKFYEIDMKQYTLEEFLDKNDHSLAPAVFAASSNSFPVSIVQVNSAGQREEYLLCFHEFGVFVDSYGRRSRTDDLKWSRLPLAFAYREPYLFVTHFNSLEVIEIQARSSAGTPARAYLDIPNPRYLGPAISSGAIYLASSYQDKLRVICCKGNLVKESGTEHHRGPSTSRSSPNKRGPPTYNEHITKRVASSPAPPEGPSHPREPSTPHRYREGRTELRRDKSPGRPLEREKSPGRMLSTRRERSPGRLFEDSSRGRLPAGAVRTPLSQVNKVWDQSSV
IKKβ, sequence (O14920 whole entry): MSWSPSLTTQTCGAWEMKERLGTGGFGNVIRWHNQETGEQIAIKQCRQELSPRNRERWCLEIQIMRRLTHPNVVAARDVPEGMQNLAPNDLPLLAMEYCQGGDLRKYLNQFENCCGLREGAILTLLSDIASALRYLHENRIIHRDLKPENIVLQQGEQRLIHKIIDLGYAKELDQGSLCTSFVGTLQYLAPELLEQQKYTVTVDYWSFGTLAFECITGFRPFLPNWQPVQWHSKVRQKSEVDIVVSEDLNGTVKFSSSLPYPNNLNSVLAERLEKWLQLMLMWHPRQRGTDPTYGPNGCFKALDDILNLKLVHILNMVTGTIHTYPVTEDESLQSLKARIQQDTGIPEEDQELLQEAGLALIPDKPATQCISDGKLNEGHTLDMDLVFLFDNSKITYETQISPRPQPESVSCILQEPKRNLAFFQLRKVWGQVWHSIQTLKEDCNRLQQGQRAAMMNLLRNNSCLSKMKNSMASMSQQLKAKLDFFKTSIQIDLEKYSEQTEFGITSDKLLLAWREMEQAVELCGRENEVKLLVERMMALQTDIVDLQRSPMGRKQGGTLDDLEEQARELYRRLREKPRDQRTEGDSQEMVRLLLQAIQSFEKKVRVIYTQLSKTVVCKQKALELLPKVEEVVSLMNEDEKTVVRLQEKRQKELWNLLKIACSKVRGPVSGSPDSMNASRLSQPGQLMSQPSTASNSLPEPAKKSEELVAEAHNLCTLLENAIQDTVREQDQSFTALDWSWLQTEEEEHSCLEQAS

One may read the IC50 as the concentration that inhibits the measured activity by half. On to `Cc1cc2c(-c3ccc(NC(=O)[C@H](N)CC(C)(C)C)cc3C)cncc2[nH]1` [6-Azaindole Control, reference compound], for which the IC50 on Citron kinase (biochemical assay described in Example 3, read-out: IC50) was greater than 3000 nM. Also, in assay [1] (setting [2]), the “NanoBRET IC50 (nM)” value is reported as “No binding”. In addition, the “KD (nM)*” value in assay [1] (in-cell KD from IC50 by Cheng-Prussoff, [Tracer K10] = 1 μM, KD Tracer K10 = 0.23 μM) is reported as “No binding”.
Turning to `CC(C)(C)[C@@H](N)C(=O)Nc1ccc(-c2ccnc3[nH]ccc23)cc1` [Compound F-13, (2R)-2-Amino-3,3-dimethyl-N-[4-(1H-pyrrolo[2,3-b]pyridin-4-yl)phenyl]butanamide], the IC50 against IKKβ stood at 234 nM; against ROCK-2, 64 nM; on PKAα, 1 nM.
For the compound `CN[C@H](CC(C)C)C(=O)Nc1ccc(-c2ccnc3[nH]ccc23)cc1` [Compound F-41, (2R)-4-Methyl-2-(methylamino)-N-[4-(1H-pyrrolo[2,3-b]pyridin-4-yl)phenyl]pentanamide], the IC50 on IKKβ came out at 345 nM; against ROCK-2 it was 11 nM; at PKAα it was 6 nM.
Turning to `Cc1cc2c(-c3ccc(NC(=O)[C@H](N)CC(C)C)cc3)ccnc2[nH]1` [Compound F-48, (2R)-2-Amino-4-methyl-N-[4-[2-methyl-1H-pyrrolo[2,3-b]pyridin-4-yl]phenyl]pentanamide], the figures for the IC50 against IKKβ, at ROCK-2 and at PKAα were 122 nM, greater than 3000 nM and greater than 3000 nM, respectively.
Consider `Cc1nc(NC(=O)[C@H](N)CC(C)(C)C)ccc1-c1ccnc2[nH]c(C(F)F)cc12` [Compound F-152, (2R)-2-Amino-N-[5-[2-(difluoromethyl)-1H-pyrrolo[2,3-b]pyridin-4-yl]-6-methyl-2-pyridyl]-4,4-dimethyl-pentanamide], for which, at Citron kinase (setting [3]), the IC50 was 120 nM.
On to `COc1nc(NC(=O)[C@H](N)CC(C)(C)C)ccc1-c1ccnc2[nH]c(C)cc12` [Compound F-153, (2R)-2-Amino-N-[6-methoxy-5-(2-methyl-1H-pyrrolo[2,3-b]pyridin-4-yl)-2-pyridyl]-4,4-dimethyl-pentanamide], for which, at Citron kinase (setting [3]), the IC50 amounted to 35 nM.
For the compound `COc1nc(NC(=O)[C@H](N)CC(C)(C)C)ccc1-c1ccnc2[nH]c(C(F)(F)F)cc12` [Compound F-154, (2R)-2-Amino-N-[6-methoxy-5-[2-(trifluoromethyl)-1H-pyrrolo[2,3-b]pyridin-4-yl]-2-pyridyl]-4,4-dimethyl-pentanamide], at Citron kinase (setting [3]), the IC50 stood at 59 nM.
As for `COc1nc(NC(=O)[C@H](N)CC(C)C)ccc1-c1ccnc2[nH]c(C(F)(F)F)cc12` [Compound F-155, (2R)-2-Amino-N-[6-methoxy-5-[2-(trifluoromethyl)-1H-pyrrolo[2,3-b]pyridin-4-yl]-2-pyridyl]-4-methyl-pentanamide], the IC50 on Citron kinase (setting [3]) came to 113 nM.
Regarding `Cc1cc2c(-c3ccc(NC(=O)[C@H](N)CC(C)(C)C)c(F)c3C)ccnc2[nH]1` [Compound F-156, (2R)-2-Amino-N-[2-fluoro-3-methyl-4-(2-methyl-1H-pyrrolo[2,3-b]pyridin-4-yl)phenyl]-4,4-dimethyl-pentanamide], the IC50 on Citron kinase (setting [3]) worked out at 10 nM.
For `COc1cccc(C[C@@H](N)C(=O)Nc2ccc(-c3ccnc4[nH]c(C)cc34)c(C)c2)c1` [Compound F-157, (2R)-2-Amino-3-(3-methoxyphenyl)-N-[3-methyl-4-(2-methyl-1H-pyrrolo[2,3-b]pyridin-4-yl)phenyl]propenamide], at Citron kinase (setting [3]), the IC50 stood at 519 nM.
Consider `Cc1cc2c(-c3ccc(NC(=O)[C@@H](N)CC(C)(C)C)cc3C)ccnc2[nH]1` [Compound F-158, (2S)-2-Amino-4,4-dimethyl-N-[3-methyl-4-(2-methyl-1H-pyrrolo[2,3-b]pyridin-4-yl)phenyl]pentanamide], for which the IC50 at Citron kinase (setting [3]) is 126 nM.
As to `Cc1cc2c(-c3ccc(NC(=O)[C@@H](N)C(C)(C)O)cc3C)ccnc2[nH]1` [Compound F-159, (2S)-2-Amino-3-hydroxy-3-methyl-N-[3-methyl-4-(2-methyl-1H-pyrrolo[2,3-b]pyridin-4-yl)phenyl]butanamide], the IC50 on Citron kinase (setting [3]) worked out at 852 nM.
Same read-out and setting: for `Cc1cc2c(-c3ccc(NC(=O)C(N)C(O)C(C)(C)C)cc3C)ccnc2[nH]1` (centres unmarked) [Compound F-160, 2-Amino-3-hydroxy-4,4-dimethyl-N-[3-methyl-4-(2-methyl-1H-pyrrolo[2,3-b]pyridin-4-yl)phenyl]pentanamide] the value was 29 nM.
Broadly, the Kd is the concentration at which binding is half-saturated. The low end stands for higher affinity, the high end for lower affinity. Turning to `Cc1cc2c(-c3ccc(NC(=O)[C@@H](N)[C@H](O)C(C)C)cc3C)ccnc2[nH]1` [Compound F-161, (2S,3R)-2-Amino-3-hydroxy-4-methyl-N-[3-methyl-4-(2-methyl-1H-pyrrolo[2,3-b]pyridin-4-yl)phenyl]pentanamide], the 50% inhibitory concentration (IC50) at Citron kinase (setting [3]) was 19 nM; in assay [1] (setting [2]), 23 nM. This compound also yielded a dissociation constant (Kd) in assay [1] of 4.3 nM.
In the same order, the values of `Cc1cc2c(-c3ccc(NC(=O)[C@H](N)[C@@H](O)C(C)C)cc3C)ccnc2[nH]1` [Compound F-162, (2R,3S)-2-Amino-3-hydroxy-4-methyl-N-[3-methyl-4-(2-methyl-1H-pyrrolo[2,3-b]pyridin-4-yl)phenyl]pentanamide] are 5 nM, 10 nM and 1.9 nM.
On to `COc1cc(NC(=O)[C@H](N)CC(C)(C)C)ccc1-c1ccnc2[nH]ccc12` [Compound F-166, (2R)-2-Amino-N-[3-methoxy-4-(1H-pyrrolo[2,3-b]pyridin-4-yl)phenyl]-4,4-dimethyl-Pentanamide], for which the 50% inhibitory concentration (IC50) on Citron kinase (setting [3]) worked out at 37 nM.
Regarding `COc1cc(NC(=O)[C@H](N)CC(C)(C)C)ccc1-c1ccnc2[nH]c(C)cc12` [Compound F-167, (2R)-2-Amino-N-[3-methoxy-4-(2-methyl-1H-pyrrolo[2,3-b]pyridin-4-yl)phenyl]-4,4-dimethyl-pentanamide], the 50% inhibitory concentration (IC50) at Citron kinase (setting [3]) worked out at 50 nM.
Same read-out and setting: for `COc1cc(NC(=O)[C@H](N)C(C)(C)O)ccc1-c1ccnc2[nH]c(C)cc12` [Compound F-168, (2R)-2-Amino-3-hydroxy-N-[3-methoxy-4-(2-methyl-1H-pyrrolo[2,3-b]pyridin-4-yl)phenyl]-3-methyl-butanamide] the value was 1530 nM; for `Cc1cc2c(-c3ccc(NC(=O)[C@H](N)CC(C)(C)C)cc3OC(F)F)ccnc2[nH]1` [Compound F-169, (2R)-2-Amino-N-[3-(difluoromethoxy)-4-(2-methyl-1H-pyrrolo[2,3-b]pyridin-4-yl)phenyl]-4,4-dimethyl-pentanamide], 53 nM; for `Cc1cc2c(-c3ccc(NC(=O)[C@H](N)C(C)(C)O)cc3OC(F)F)ccnc2[nH]1` [Compound F-170, (2R)-2-Amino-N-[3-(difluoromethoxy)-4-(2-methyl-1H-pyrrolo[2,3-b]pyridin-4-yl)phenyl]-3-hydroxy-3-methyl-butanamide], 315 nM.
For `COc1cc(-c2ccnc3[nH]c(C)cc23)ncc1NC(=O)[C@H](N)CC(C)(C)C` [Compound F-171, (2R)-2-Amino-N-[4-methoxy-6-(2-methyl-1H-pyrrolo[2,3-b]pyridin-4-yl)-3-pyridyl]-4,4-dimethyl-pentanamide], the IC50 at Citron kinase (setting [3]) was found to be 232 nM.
Regarding `COc1cc(NC(=O)[C@H](N)CC(C)(C)C)cnc1-c1ccnc2[nH]c(C)cc12` [Compound F-172, (2R)-2-Amino-N-[5-methoxy-6-(2-methyl-1H-pyrrolo[2,3-b]pyridin-4-yl)-3-pyridyl]-4,4-dimethyl-pentanamide], at Citron kinase (setting [3]), the IC50 is 3000 nM.
As to `Cc1cc2c(-c3ccc(NC(=O)[C@H](N)C(C)(C)F)cc3C)ccnc2[nH]1` [Compound F-173, (2S)-2-Amino-3-fluoro-3-methyl-N-[3-methyl-4-(2-methyl-1H-pyrrolo[2,3-b]pyridin-4-yl)phenyl]butanamide], the concentration for half-maximal inhibition (IC50) at Citron kinase (setting [3]) was determined as 461 nM.
